# Test results reported in ChEMBL document CHEMBL1201862, “PubChem BioAssay data set” (2004).
# Where “and” joins values, the source holds several entries; their conditions need not be identical. Identical values can stand only once.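 Exposure lasted 48 hours, with cells grown in 96-well plates and compounds tested at five concentrations. At the GI50, growth is halved.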 Calls of active or inactive are those of the source. Rule as the data show it: active = GI50 up to about 1.1 µM and inactive = higher.
# What was measured:
# Test in all cases: NCI anticancer screen, dose series, 48 h
# [1] = system: CAKI-1
# [2] = system: NCI/ADR-RES
# [3] = system: TK-10
# [4] = system: KM12
# [5] = system: SNB-75
# [6] = system: SW-620
# [7] = system: M14
# [8] = system: A549
# [9] = system: Hs-578T
# [10] = system: MDA-MB-231
# [11] = system: SR
# [12] = system: SK-OV-3
# [13] = system: HCT-116
# [14] = system: HOP-92
# [15] = system: 786-0
# [16] = system: K562
# [17] = system: UACC-257
# [18] = system: HL-60
# [19] = system: SNB-19
# [20] = system: SN12C
# [21] = system: LOX IMVI
# [22] = system: MOLT-4
# [23] = system: HCT-15
# [24] = system: MCF7
# [25] = system: NCI-H226
# [26] = system: HOP-62
# [27] = system: NCI-H460
# [28] = system: DU-145
# [29] = system: SK-MEL-28
# [30] = system: UO-31
# [31] = system: OVCAR-5
# [32] = system: SF-268
# [33] = system: T47D
# [34] = system: MDA-MB-435
# [35] = system: EKVX
# [36] = system: MDA-N
# [37] = system: A498
# [38] = system: UACC-62
# [39] = system: HCC 2998
# [40] = system: NCI-H23
# [41] = system: SK-MEL-2
# [42] = system: RPMI-8226
# [43] = system: COLO 205
# [44] = system: PC-3
# [45] = system: RXF 393
# [46] = system: SF-295
# [47] = system: ACHN
# [48] = system: OVCAR-3
# [49] = system: HT-29
# [50] = system: OVCAR-8
# [51] = system: SK-MEL-5
# [52] = system: U-251
# [53] = system: OVCAR-4
# [54] = system: IGROV-1
# [55] = system: Malme-3M
# [56] = system: CCRF-CEM
compound,measurement,setting,value
O=C(C1=CCC2(CC1)OCCO2)N(Cc1ccccc1)c1ccccc1I,GI50,[1],24.5 µM (inactive)
same,GI50,[2],15 µM (inactive)
same,GI50,[3],21.5 µM (inactive)
same,GI50,[4],14.1 µM (inactive)
same,GI50,[5],14.1 µM (inactive)
same,GI50,[6],29.7 µM (inactive)
same,GI50,[7],16.9 µM (inactive)
same,GI50,[8],28 µM (inactive)
same,GI50,[9],0.181 µM (active)
same,GI50,[10],20 µM (inactive)
same,GI50,[11],12.8 µM (inactive)
same,GI50,[12],32.1 µM (inactive)
same,GI50,[13],14.8 µM (inactive)
same,GI50,[14],16.1 µM (inactive)
same,GI50,[15],18.8 µM (inactive)
same,GI50,[16],43.2 µM (inactive)
same,GI50,[17],19.2 µM (inactive)
same,GI50,[18],18 µM (inactive)
same,GI50,[19],18.9 µM (inactive)
same,GI50,[20],24 µM (inactive)
same,GI50,[21],21.2 µM (inactive)
same,GI50,[22],63.8 µM (inactive)
same,GI50,[23],23 µM
same,GI50,[24],26.4 µM (inactive)
same,GI50,[25],19.9 µM (inactive)
same,GI50,[26],22.4 µM (inactive)
same,GI50,[27],18.9 µM (inactive)
same,GI50,[28],32.8 µM (inactive)
same,GI50,[29],21.2 µM (inactive)
same,GI50,[30],17.6 µM (inactive)
same,GI50,[31],18.1 µM (inactive)
same,GI50,[32],13.4 µM (inactive)
same,GI50,[33],18.4 µM (inactive)
same,GI50,[34],19.7 µM (inactive)
same,GI50,[35],16.4 µM (inactive)
same,GI50,[36],29 µM (inactive)
same,GI50,[37],22.5 µM (inactive)
same,GI50,[38],13.5 µM (inactive)
same,GI50,[39],16.8 µM (inactive)
same,GI50,[40],19.7 µM (inactive)
same,GI50,[41],21.2 µM (inactive)
same,GI50,[42],24.4 µM (inactive)
same,GI50,[43],17.7 µM (inactive)
same,GI50,[44],26.3 µM (inactive)
same,GI50,[45],28.3 µM (inactive)
same,GI50,[46],21.4 µM (inactive)
same,GI50,[47],20.8 µM (inactive)
same,GI50,[48],21.3 µM (inactive)
same,GI50,[49],17.9 µM (inactive)
same,GI50,[50],16.4 µM (inactive)
same,GI50,[51],13.9 µM (inactive)
same,GI50,[52],19.9 µM (inactive)
same,GI50,[53],14.9 µM (inactive)
CN1C/C(=C\c2ccccc2[N+](=O)[O-])C(=O)/C(=C/c2ccccc2[N+](=O)[O-])C1,GI50,[2],1.03 µM (active)
same,GI50,[3],1.17 µM (inactive)
same,GI50,[4],1.99 µM (inactive)
same,GI50,[5],2.21 µM (inactive)
same,GI50,[6],0.201 µM (active)
same,GI50,[8],3.55 µM (inactive)
same,GI50,[12],3.02 µM (inactive)
same,GI50,[13],0.195 µM (active)
same,GI50,[14],0.836 µM (active)
same,GI50,[15],0.277 µM (active)
same,GI50,[18],0.112 µM (active)
same,GI50,[19],4.26 µM (inactive)
same,GI50,[22],0.238 µM (active)
same,GI50,[23],0.262 µM
same,GI50,[24],0.348 µM (active)
same,GI50,[25],5.05 µM (inactive)
same,GI50,[54],0.782 µM (active)
same,GI50,[26],2.48 µM (inactive)
same,GI50,[27],1.79 µM (inactive)
same,GI50,[28],2.2 µM (inactive)
same,GI50,[30],0.303 µM (active)
same,GI50,[37],2.17 µM (inactive)
same,GI50,[38],0.771 µM (active)
same,GI50,[39],1.01 µM (active)
same,GI50,[41],2.11 µM (inactive)
same,GI50,[43],0.25 µM (active)
same,GI50,[44],1.23 µM (inactive)
same,GI50,[51],0.902 µM (active)
same,GI50,[52],1.19 µM (inactive)
Nc1nc(Cl)c(/N=N/c2ccc(Cl)cc2)c(NCC2(CO)CC(OCc3ccccc3)C2)n1 (centres undefined),GI50,[1],3.31 µM (inactive) and 1.82 µM (inactive)
same,GI50,[5],6.71 µM (inactive)
same,GI50,[16],4.98 µM (inactive) and 3.03 µM (inactive)
same,GI50,[18],3.63 µM (inactive) and 3.48 µM (inactive)
same,GI50,[30],2.92 µM (inactive) and 2.08 µM (inactive)
same,GI50,[33],3.67 µM (inactive) and 3.15 µM (inactive)
same,GI50,[47],1.53 µM (inactive) and 1.73 µM (inactive)
same,GI50,[55],1.62 µM (inactive)
COc1cc(OC)c(OC)cc1/C=C\c1nccc2ccccc12,GI50,[1],22.5 µM (inactive)
same,GI50,[2],31.2 µM (inactive)
same,GI50,[3],27.8 µM (inactive)
same,GI50,[4],15.1 µM (inactive)
same,GI50,[5],23.9 µM (inactive)
same,GI50,[6],26.9 µM (inactive)
same,GI50,[7],16.7 µM (inactive)
same,GI50,[8],25.6 µM (inactive)
same,GI50,[9],28.3 µM (inactive)
same,GI50,[11],20.9 µM (inactive)
same,GI50,[12],32.8 µM (inactive)
same,GI50,[13],18.1 µM (inactive)
same,GI50,[14],15.3 µM (inactive)
same,GI50,[16],28.9 µM (inactive)
same,GI50,[18],18.7 µM (inactive)
same,GI50,[19],18.5 µM (inactive)
same,GI50,[22],16.1 µM (inactive)
same,GI50,[23],> 10 µM
same,GI50,[54],28.5 µM (inactive)
same,GI50,[28],16.3 µM (inactive)
same,GI50,[29],29.3 µM (inactive)
same,GI50,[30],16.8 µM (inactive)
same,GI50,[31],29.3 µM (inactive)
same,GI50,[32],23.3 µM (inactive)
same,GI50,[33],24.2 µM (inactive)
same,GI50,[35],22.2 µM (inactive)
same,GI50,[36],> 10 µM (inactive)
same,GI50,[56],76.2 µM (inactive)
same,GI50,[40],23.4 µM (inactive)
same,GI50,[42],18.7 µM (inactive)
same,GI50,[43],22.5 µM (inactive)
same,GI50,[44],27.8 µM (inactive)
same,GI50,[45],18.7 µM (inactive)
same,GI50,[46],24 µM (inactive)
same,GI50,[50],23.2 µM (inactive)
same,GI50,[55],33 µM (inactive)
same,GI50,[51],15.2 µM (inactive)
same,GI50,[52],24.9 µM (inactive)
same,GI50,[53],29.1 µM (inactive)
